Reference: US5637586A, “Benzimidazolesulfonamide derivatives and pharmaceutical composition” (Kureha Chemical Industry Co., Ltd., priority 1994, dated 1997)

Key:
[1] = test system: angiotensin II receptor subtype 1 (AT1); assay: Binding to receptors: inhibition of radioligand (3H-angiotensin II) binding to AT1; settings: rabbit adrenal glands, tracer 3H-angiotensin II, displacer DuP753, room temperature
Protocol: (§1) In this Example, the affinity to the angiotensin II receptor subtype 1 or subtype 2 was evaluated by a binding assay in accordance with the method described in Biochem. Pharmacol., 33, 4057-4062 (1984).
(§2) Specifically, the measurement of the total binding in the presence of each drug was performed as follows:
(§3) A mixture (final volume=0.25 ml) of a drug in a given concentration (the drug was dissolved in dimethylsulfoxide, and diluted to a double volume with a buffer attached to a drug discovery system to prepare a sample for the assay; 0.025 ml), a tracer (0.025 ml), and receptors (0.2 ml) was incubated [in the case of the angiotensin II receptor subtype 1 (AT1), at room temperature for 3 hours, and in the case of the subtype 2 (AT2), at 37° C. for 1 hour]. Then, the reaction mixture was filtered with suction (GF/C filter was used in AT1, and GF/B filter was used in AT2). The filter papers after filtration with suction (the tracer bound to the receptors) were counted by a γ-wellcounter (ARC-500, Aloka). The non-specific bindings were measured by repeating the above method, except that a large excess amount of a displacer was added. The specific binding of the drug in the given concentration was calculated by subtracting the non-specific binding from the total binding, respectively. […]

[2] = test system: angiotensin II receptor subtype 2 (AT2); assay: Binding to receptors: inhibition of radioligand (125I-Tyr4-angiotensin II) binding to AT2; settings: bovine cerebellar cortex, tracer 125I-Tyr4-angiotensin II, displacer angiotensin II (human), 37° C., 1 hour
Protocol: as §1, §2, §3

Binding inhibition % in 1 μM, AT1 [1] | Binding inhibition % in 1 μM, AT2 [2] | SMILES
95% | 0% | CCCCc1nc(Cl)c(CO)n1Cc1ccc(-c2ccccc2-c2nnn[nH]2)cc1 [DuP753, 2-butyl-4-chloro-5-(hydroxymethyl)-1-[[2'-(1H-tetrazol-5-yl)biphenyl-4-yl]methyl]imidazole]
100% | 0% | CCCCc1nc2ccc(S(=O)(=O)N3CCOCC3)cc2n1Cc1ccc(-c2ccccc2-c2nn[nH]n2)cc1 [Compound No. 1, 4-[[2-n-butyl-1-[2'-[(1H-tetrazol-5-yl)biphenyl-4-yl]methyl]benzimidazol-6-yl]sulfonyl]morpholin]
